Source: US7179800B2 (priority 2002, dated 2007)
Read-outs that look alike come from different tables or passages of the source.

Key:
CB1 receptor = CB1 receptor (Rattus norvegicus, UniProt P20272); assay: CB1 binding procedure: displacement of [3H]CP 55,940 from rat whole-brain P2 membranes; set-up: whole brain was homogenized and centrifuged; from tissue; host or cells: rat whole brain, P2 membrane fraction; settings: for Ki: [3H]CP 55,940, rat brain membranes
Protocol: (§1) Male ICR mice (25–32 g), obtained from Harlan (Dublin, Va.), were housed in groups of five. All animals were kept in a temperature-controlled (20–22° C.) environment with a 12-hour light-dark cycle (lights on at 7 a.m.). Separate mice were used for testing each drug dose in the in vivo behavioral procedures. Brain tissue for binding studies was obtained from male Sprague-Dawley rats (150–200 g) purchased from Harlan Laboratories (Dublin, Va.).
The methods used for tissue preparation and binding have been described previously (Compton et al., 1993) and are similar to those described by Devane et al. (1988). All assays, as described briefly below, were performed in triplicate, and the results represent the combined data from three to six individual experiments.
Following decapitation and rapid removal of the brain, whole brain was homogenized and centrifuged. The resulting pellet was termed P1. The supernatant was saved and combined with the two subsequent supernatants obtained from washing of the P1 pellet. The combined supernatant fractions were centrifuged, resulting in the P2 pellet. After further incubation and centrifuging, this pellet was resuspended in assay buffer to a protein concentration of approximately 2 mg/ml. The membrane preparation was quickly frozen in a bath solution of dry ice and 2-methylbutane (Sigma Chemical Co., St. Louis, Mo.), then stored at −80° C. for no more than 2 weeks. Prior to performing a binding assay an aliquot of frozen membrane was rapidly thawed and protein values determined by the method of Bradford (1976).
Binding was initiated by the addition of 150 μg of P2 membrane to test tubes containing 1 nM of [^3H] CP 55,940 (79 Ci/mmol) and a sufficient quantity of buffer to bring the total incubation volume to 1 ml. Nonspecific binding was determined by the addition of 1 μM unlabeled CP 55,940. Following incubation at 30° C. for 1 hr, binding was terminated by addition of ice cold buffer and vacuum filtration through pretreated filters in a 12-well sampling manifold (Millipore, Bedford, Mass.). After washing, filters were placed into plastic scintillation vials (Packard, Downer Grove, Ill.) and shaken. The quantity of radioactivity present was determined by liquid scintillation spectrometry.
(§2) In addition, multiple linear regression was used to calculate the overall degree of relationship between CB1 binding affinity and potency in the mouse measures for all active cannabinoids. […] Ki values for CB1 and CB2 binding were obtained from Scatchard displacement analysis as determined via EBDA program of the KELL software package (Biosoft, Milltown, N.J.).

Male ICR mice [1] = assay: Change in rectal temperature (RT) in mice; format: in vivo, mouse; settings: for ED50: Mus musculus, iv; for ED50 / RT effect at the highest dose (change in rectal temperature): mice, i.v.; for RT effect at the highest dose (change in rectal temperature): 30 mg/kg
Protocol: as §1
(§3) Measurement of spontaneous activity in mice occurred in standard activity chambers interfaced with a Digiscan Animal Activity Monitor (Omnitech Electronics, Inc., Columbus, Ohio). A standard tail-flick apparatus and a digital thermometer (Fisher Scientific, Pittsburgh, Pa.) were used to measure antinociception and rectal temperature, respectively
(§4) Resorcinols were synthesized in our labs (Organix, Inc., Woburn, Mass.) according to the procedure specified below and were suspended in a vehicle of absolute ethanol, Emulphor-620 (Rhone-Poulenc, Inc., Princeton, N.J.), and saline in a ratio of 1:1:18. Drugs were administered to the mice intravenously (i.v.) in the tail vein at a volume of 0.1 ml/10 g.
(§5) Prior to testing in the behavioral procedures, mice were acclimated to the experimental setting (ambient temperature 22–24° C.) overnight. Pre-injection control values were determined for rectal temperature and tail-flick latency (in sec). […] Tail-flick latency was measured at 20 min post-injection. Maximum latency of 10 sec was used. Antinociception was calculated as percent of maximum possible effect {% MPE=[(test−control latency)/(10-control)]×100}. Control latencies typically ranged from 1.5 to 4.0 sec. At 30 min post-injection, rectal temperature was measured This value was expressed as the difference between control temperature (before injection) and temperatures following drug administration (° C.). Different mice (n=5–6 per dose) were tested for each dose of each compound. Each mouse was tested in each of the 3 procedures.
(§6) Based on data obtained from numerous previous studies with cannabinoids, maximal cannabinoid effects in each procedure were estimated as follows: 90% inhibition of spontaneous activity, 100% MPE in the tail flick procedure, and −6° C. change in rectal temperature. ED50's were defined as the dose at which half maximal effect occurred. For drugs that produced one or more cannabinoid effect, ED50's were calculated separately using least-squares linear regression on the linear part of the dose-effect curve for each measure in the mouse tetrad, plotted against log10 transformation of the dose. For the purposes of potency comparison, potencies were expressed as μmol/kg.

Male ICR mice [2] = assay: Tail-flick antinociception (TF, % MPE) in mice; format: in vivo, mouse; settings: for ED50: Mus musculus, iv; for ED50 / TF percent effect (% MPE) at the highest dose: mice, i.v.; for TF percent effect (% MPE) at the highest dose: 30 mg/kg; for T.F. % effect at dose: @ 30 (mg/kg)
Protocol: as §1, §3, §4, §5, §6

Male ICR mice [3] = assay: Suppression of spontaneous activity (SA) in mice; format: in vivo, mouse; settings: for ED50: Mus musculus, iv; for ED50 / SA percent effect at the highest dose: mice, i.v.; for SA percent effect at the highest dose: 30 mg/kg, % inhibition of activity of vehicle group; for S.A % effect at dose: @ 30 (mg/kg)
Protocol: as §1, §3, §4, §5, §6

CB2 receptor = target: T1, CB2 receptor (Homo sapiens, UniProt P34972); assay: CB2 binding procedure: displacement of [3H]CP-55,940 from membranes of transfected CHO cells; settings: for Ki: [3H]CP-55,940, transfected CHO cell membranes; for CB1/CB2 (ratio of Ki): CB1 Ki divided by CB2 Ki; for fold decrease in CB2 affinity: relative to the comparator analog
T1 construct: expressed in transfected cells; host or cells: CHO cells, G418-selected transfected line
Protocol: Membranes for CB2 binding were obtained from CHO cells. The transfected cell line was maintained in Dublecco's Modified Eagle Medium (Gibco BRL, Grand Island, N.Y.) with 10% fetal clone II (HyClone Laboratories, Inc., Logan, Utah) plus 0.3 to 0.5 mg/ml G418 (to maintain selective pressure) under 5% CO2 at 37% C. Cells were harvested with 1 mM EDTA in phosphate-buffered saline and were centrifuged at 1000×g for 5 min at 4% C. The supernatant was saved and the P1 pellet was resuspended in centrifugation buffer. Homogenization and centrifugation were repeated twice and the combined supernatant fractions were centrifuged at 40,000×g for 30 min at 4% C. The P2 pellet was resuspended in centrifugation buffer 2 (Tris HCl, 50 mM; EDTA, 1 mM; and MgCl2, 3 mM, pH 7.4) to a protein concentration of approximately 2 mg/ml. Protein concentrations were determined by the method of Bradford (1976) using Bio-Rad Protein Assay (Bio-Rad, Richmond, Calif.) and BSA standards (fatty acid free, Sigma Chemical Co., St. Louis, Mo.). The membrane preparation was divided into amounts convenient for binding assays and frozen rapidly in dry ice and stored at −80% C.
Binding was initiated by the addition of 50 μg of quickly thawed P2 membranes to test tubes containing [^3H]CP-55,940 (final reaction concentration 0.5 nM), an appropriate concentration of unlabeled CP-55,940 or test drug, and sufficient quantity of assay buffer (50 mM Tris-HCl, 1 mM EDTA, 3 mM MgCl2, 5 mg/ml bovine serum albumin, pH 7.4) to bring the total incubation volume to 0.5 ml. Concentration of [^3H]CP-55,940 in saturation studies ranged from 50 to 10,000 pM. Nonspecific binding was determined by the addition of 1 μM unlabeled CP-55,940. CP-55,940 and all cannabinoid analogs were prepared by suspension in assay buffer from a 1 mg/ml ethanolic stock without evaporation of the ethanol (final concentration of no more than 0.4%). In competition studies, analog concentrations ranged from 0.1 nM to 10 μM. After incubation at 30% C for 1 hr, binding was terminated by the addition of 2 ml of ice-cold wash buffer (50 mM Tris-HCl and 1 mg/ml BSA) and vacuum filtration through pre-treated filters in a 12-well sampling manifold (Millipore, Bedford, Mass.). Reaction vessels were washed once with 2 ml of ice-cold wash buffer. Filters were placed into 7-ml plastic scintillation vials (RPI Corp., Mount Prospect, Ill.) with 4 ml of Budget-Solve (RPI Corp.). After shaking for 30 min, the radioactivity present was determined by liquid scintillation spectrometry. Three reaction vessels were used for each drug concentration in each assay. The results represent the combined data of three independent experiments. All assays were performed in siliconized test tubes, which were prepared by air drying (12 hr) inverted borosilicate tubes after two rinses with a 0.1% solution of AquaSil (Pierce, Rockford, Ill.). The GF/C glass-fiber filters (2.4 cm, Baxter, McGaw Park, Ill.) were pre-treated in a 0.1% solution of pH 7.4 polyethylenimine (Sigma Chemical Co.) for at least 6 hr.
as §2

[4] = means ± SEM, read-out: Ki (nM) CB1
[5] = 95% confidence limits in parentheses, read-out: ED50 RT (rectal temperature)
[6] = 95% confidence limits in parentheses, read-out: ED50 TF (antinociceptive effect in tail flick assay)
[7] = 95% confidence limits in parentheses, read-out: ED50 SA (suppression of spontaneous activity)
[8] = means ± SEM, read-out: Ki (nM) CB2

Sequence of CB1 receptor (P20272 whole entry): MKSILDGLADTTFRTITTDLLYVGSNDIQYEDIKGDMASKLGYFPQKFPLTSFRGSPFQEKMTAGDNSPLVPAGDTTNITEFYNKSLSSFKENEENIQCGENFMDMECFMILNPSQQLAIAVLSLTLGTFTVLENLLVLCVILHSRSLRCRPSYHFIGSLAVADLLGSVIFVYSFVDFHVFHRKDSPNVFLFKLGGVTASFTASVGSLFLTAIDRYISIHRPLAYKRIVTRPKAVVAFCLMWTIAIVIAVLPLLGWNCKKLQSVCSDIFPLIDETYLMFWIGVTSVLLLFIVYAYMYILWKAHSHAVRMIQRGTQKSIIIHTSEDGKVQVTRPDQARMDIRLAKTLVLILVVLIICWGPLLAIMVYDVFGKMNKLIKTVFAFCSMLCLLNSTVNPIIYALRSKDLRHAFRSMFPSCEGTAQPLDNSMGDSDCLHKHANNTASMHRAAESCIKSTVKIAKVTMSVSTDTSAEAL
T1 sequence (P34972 whole entry): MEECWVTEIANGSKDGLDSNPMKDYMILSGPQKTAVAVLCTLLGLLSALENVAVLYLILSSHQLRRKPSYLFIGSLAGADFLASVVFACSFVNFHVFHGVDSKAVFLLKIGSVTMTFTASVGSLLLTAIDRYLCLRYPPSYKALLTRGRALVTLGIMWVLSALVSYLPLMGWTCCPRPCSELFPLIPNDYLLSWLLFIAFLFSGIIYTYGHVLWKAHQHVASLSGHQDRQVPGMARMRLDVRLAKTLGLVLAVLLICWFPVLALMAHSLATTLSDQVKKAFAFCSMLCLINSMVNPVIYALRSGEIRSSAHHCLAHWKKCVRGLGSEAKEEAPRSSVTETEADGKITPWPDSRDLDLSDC

Row | SMILES | Ki (CB1 receptor; [4]) [nM] | ED50 (Male ICR mice [1]; Table 6, read-out: R.T. ED50) [mg/kg] | ED50 (Male ICR mice [1]; [5]) [µmol/kg] | ED50 (Male ICR mice [2]; Table 6, read-out: T.F. ED50) [mg/kg] | ED50 (Male ICR mice [2]; [6]) [µmol/kg] | ED50 (Male ICR mice [3]; Table 6, read-out: S.A ED50) [mg/kg] | ED50 (Male ICR mice [3]; [7]) [µmol/kg] | Ki (CB2 receptor; [8]) [nM] | RT effect at the highest dose (change in rectal temperature) (Male ICR mice [1]) | TF percent effect (% MPE) at the highest dose (Male ICR mice [2]) | SA percent effect at the highest dose (Male ICR mice [3]) | CB1/CB2 (ratio of Ki) (CB2 receptor) | Ki (CB1 receptor; Ki (nM) CB1, means ± SEM) [nM] | fold decrease in CB1 affinity (CB1 receptor; relative to the comparator analog) [fold] | T.F. % effect at dose (Male ICR mice [2]; Table 6) | S.A % effect at dose (Male ICR mice [3]; Table 6) | Ki (CB2 receptor; Ki (nM) CB2, means ± SEM) [nM] | fold decrease in CB2 affinity (CB2 receptor) [fold] | R.T. effect at dose (Male ICR mice [1]; Table 6, @ 30 (mg/kg))
1 | CCCCCCC(C)(C)c1cc(O)c(C2CCCC2)c(O)c1 [O-1424, 2-(Cyclopentyl)-dimethylheptyl-resorcinol] | 95 ± 6 | 4.24 | 13 | 4.48 | 13 | 8.29 | 27 | 7 ± 0.4 |  |  |  |  |  |  |  |  |  |  | 
2 | CCCC(C)(C)c1ccc(-c2cc(C)ccc2C(C)C)c(O)c1 [O-1532] | 876 ± 18 |  |  |  |  |  |  | 113 ± 21 | −0.4 °C | 7% | 32% | 8 |  |  |  |  |  |  | 
3 | CCCCCCC(C)(C)c1ccc(-c2cc(CO)ccc2C(C)C)c(O)c1 [O-1601, 3-1′,1′-Dimethylheptyl-6-(2-isopropyl-5-hydroxy-methylphenyl)-phenol] | 5 ± 0.6 |  | 1.6 |  | 1.1 |  | 1.1 | 3 ± 0.4 |  |  |  | 2 |  |  |  |  |  |  | 
4 | CCCCCCC(C)(C)c1cc(O)c(C2CCC(c3ccccc3)CC2)c(O)c1 (stereo not drawn) [O-1663, 2-(4-Phenylcyclohexyl)-5-(1′,1′-dimethylheptyl)-resorcinol] |  |  |  |  |  |  |  |  | −2.2(30) °C | 7%(30) | 32%(30) | 16 | 144 ± 22 | 3 | 7% @ 30 | 32% @ 30 | 9 ± 2 | 2 | 
5 | CCCCCCC(C)(C)c1cc(OC)c(C2CCCC(C)C2)c(OC)c1 (stereo not drawn) [O-1999] | > 10000 |  |  |  |  |  |  | 466 ± 110 |  |  |  |  |  |  | 6 @ 30% | 4 @ 30% |  | ~600 | 1 @ 30 °C
